Experimental data: ChEMBL document CHEMBL3137667, “[Drug-induced liver injury; fourteenth updated edition of the bibliographic database of liver injuries and related drugs]” (Gastroenterol Clin Biol, 2004)
Counter-ions that a name gives are not always drawn.

How the values were obtained:
[1] = human
[2] = Highest frequency of acute liver toxicity observed during clinical trials, expressed as a percentage. [column '% AIGUE' in source]; details: human
[3] = Highest frequency of moderate liver toxicity observed during clinical trials, expressed as a percentage. [column '% BIOL' in source]; details: human
[4] = human; remark: listed apart in the source
[5] = human; remark: listed apart in the source
[6] = human; remark: listed apart in the source
[7] = human, serum, 4383 h
[8] = human; remark: listed apart in the source
[9] = Times to onset, minimal and maximal, observed in the indexed observations. [column 'DELAI' in source]; details: human
[10] = human; remark: listed apart in the source
[11] = human, serum
[12] = human; remark: listed apart in the source
[13] = human; remark: listed apart in the source
[14] = human; remark: listed apart in the source
[15] = human, serum; remark: listed apart in the source
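For Hepatotoxicity (association with vascular disease) in this document: count of indexed literature references reporting vascular liver injury in humans, e.g. peliosis hepatitis, hepatic veno-occlusive disease or Budd-Chiari syndrome.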
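For Hepatotoxicity (benign tumour) in this document: value is a count of indexed literature references citing a benign tumour confirmed by histopathology.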
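For Hepatotoxicity (choleostasis) in this document: human cholestatic liver injury, shown by histopathology or by peak ALT or AST elevation over alkaline phosphatase ratio below 2, value counts indexed literature reports.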
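For Hepatotoxicity (chronic liver disease) in this document: chronic liver injury confirmed by histopathology or persistently raised serum aminotransferase activity beyond 6 months, value given as the count of indexed literature references.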
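For Hepatotoxicity (cirrhosis) in this document: value is a count of indexed literature references reporting cirrhosis confirmed by histopathology.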
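For Hepatotoxicity (cytolytic) in this document: human cytolytic liver injury, shown by histopathology or by a ratio above 5 of peak ALT or AST elevation to alkaline phosphatase elevation, value counts indexed references.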
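For Hepatotoxicity (granulomatous hepatitis) in this document: value is a count of indexed literature references reporting granulomatous liver disease confirmed by histopathology.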
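For Hepatotoxicity (malignant tumour) in this document: malignant tumour confirmed by histopathology, value gives the count of indexed literature references reporting it.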
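For Hepatotoxicity (severe hepatitis) in this document: human clinical data: severe hepatitis, meaning potentially life-threatening liver failure or clinically observed cases, the value counts how many indexed literature references report it.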
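For Hepatotoxicity (steatosis) in this document: steatosis confirmed by histopathology, value is the count of indexed references.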

SMILES | Hepatotoxicity (malignant tumour) [1] | Hepatotoxicity (acute) [2] | Hepatotoxicity (moderate) [3] | Hepatotoxicity (severe hepatitis) [4] | Hepatotoxicity (steatosis) [5] | Hepatotoxicity (granulomatous hepatitis) [6] | Hepatotoxicity (chronic liver disease) [7] | Hepatotoxicity (cirrhosis) [8] | Hepatotoxicity (time to onset) [9] | Hepatotoxicity (cytolytic) [10] | Hepatotoxicity (acute) [11] | Hepatotoxicity (association with vascular disease) [12] | Hepatotoxicity (benign tumour) [13] | Hepatotoxicity (choleostasis) [14] | Hepatotoxicity (moderate) [15] | also measured
Nc1ccc(C(=O)[O-])cc1.[K+] [AMINOBENZOATE POTASSIUM] | 0 | 0% | 38% | 0 | 0 | 0 | 0 | 0 | 2 months | 1 | 1 | 0 | 0 | 0 | 1 | –
Nc1ccc(C(=O)O)cc1 [AMINOBENZOIC ACID] | 0 | 0% | 35% | 0 | 0 | 0 | 0 | 0 | 4 weeks - 2 months | 2 | 3 | 0 | 0 | 0 | 1 | –
CCN1CCCC1CNC(=O)c1cc(S(=O)(=O)CC)c(N)cc1OC (stereo not given) [AMISULPRIDE] | 0 | 0% | 0% | 0 | 0 | 0 | 0 | 0 | 2 weeks | 0 | 0 | 0 | 0 | 0 | 1 | –
CC(=O)Nc1ccc(/C=N/NC(N)=S)cc1 [AMITHIOZONE] | 0 | 2.5% | 18% | 2 | 2 | 0 | 0 | 1 | 1.5 months - 6 months | 5 | 6 | 0 | 0 | 2 | 4 | –
CN1CCN(C(=S)Nc2ccc(Nc3ccc([N+](=O)[O-])cc3)cc2)CC1 [AMOCARZINE] | 0 | 0% | 0% | 0 | 0 | 0 | 0 | 0 | 4 days - 2 months | 0 | 0 | 0 | 0 | 0 | 1 | –
Clc1ccc2c(c1)C(N1CCNCC1)=Nc1ccccc1O2 [AMOXAPINE] | 0 | 0% | 0% | 0 | 0 | 0 | 0 | 0 | 4 days - 18 days | 2 | 2 | 0 | 0 | 0 | 2 | –
N#C[C@H](O[C@@H]1O[C@H](CO[C@@H]2O[C@H](CO)[C@@H](O)[C@H](O)[C@H]2O)[C@@H](O)[C@H](O)[C@H]1O)c1ccccc1 [AMYGDALIN] | 0 | 0% | 0% | 1 | 0 | 0 | 0 | 0 | 2 days | 0 | 0 | 0 | 0 | 0 | 0 | –
C=CCC(C(=O)NC(N)=O)C(C)C (stereo not given) [APRONAL] | 0 | 0% | 0% | 0 | 0 | 2 | 0 | 0 | 2 days - 2 years | 0 | 2 | 0 | 0 | 0 | 0 | –
[AsH3] [ARSENIC] | 1 | – | – | – | 0 | – | 1 | 1 | 46 years | – | 1 | 0 | 0 | – | 4 | Hepatotoxicity (acute) ([2]; Liver): 47.6%; Hepatotoxicity (moderate) ([3]; Liver): 35.7%; Hepatotoxicity (severe hepatitis) ([4]; Liver): 0; Hepatotoxicity (granulomatous hepatitis) ([6]; Liver): 0; Hepatotoxicity (cytolytic) ([10]; Liver): 0; Hepatotoxicity (choleostasis) ([14]; Liver): 0
C[C@H]1[C@H](OC(=O)CCC(=O)O)O[C@@H]2O[C@@]3(C)CC[C@H]4[C@H](C)CC[C@@H]1[C@@]24OO3 [ARTESUNATE] | 0 | 6.7% | 0% | 0 | 0 | 0 | 0 | 0 | 48 days | 1 | 1 | 0 | 0 | 0 | 0 | –
CC(C)NCC(O)COc1ccc(CC(N)=O)cc1 (stereo not given) [ATENOLOL] | 0 | 0% | 10% | 0 | 1 | 0 | 0 | 0 | 2 days - 9 months | 1 | 2 | 0 | 0 | 1 | 1 | –
CCNc1cccnc1N1CCN(C(=O)c2cc3cc(OC)ccc3[nH]2)CC1 [ATEVIRDINE MESYLATE] | 0 | 6.7% | 0% | 0 | 0 | 0 | 0 | 0 | 3 weeks | 0 | 1 | 0 | 0 | 0 | 0 | –
C[C@H]1[C@H](NC(=O)/C(=N\OC(C)(C)C(=O)O)c2csc(N)n2)C(=O)N1S(=O)(=O)O [AZTREONAM] | 0 | – | – | – | 0 | 0 | 0 | 0 | 4 days | 1 | 1 | 0 | 0 | 0 | 104 | Hepatotoxicity (acute) ([2]; Liver): 0%; Hepatotoxicity (moderate) ([3]; Liver): 60%; Hepatotoxicity (severe hepatitis) ([4]; Liver): 0
NCC(CC(=O)O)c1ccc(Cl)cc1 (stereo not given) [BACLOFEN] | 0 | 0% | 0% | 0 | 0 | 0 | 0 | 0 | 3 weeks - 2 months | 1 | 3 | 0 | 0 | 1 | 1 | –
O=C(O)CCNC(=O)c1ccc(/N=N/c2ccc(O)c(C(=O)O)c2)cc1 [BALSALAZIDE] | 0 | 0% | 0% | 0 | 0 | 0 | 0 | 0 | 8 days | 0 | 1 | 0 | 0 | 1 | 0 | –
